Measurements: patent EP4817688A2, “DEGRADING PKCß1 TO TREAT CANCER” (Mayo Foundation for Medical Education and Research, priority 2020, dated 2022)
Values joined by “and” are separate entries in the source; they are usually repeats but may differ in a detail not shown here. Equal values may be shown once. Read-outs that look alike come from different tables or passages of the source.

Test: pharmacokinetics in female CD1 mice, plasma by UPLC-MS/MS
Format: in vivo
Conditions: for Tmax: read-out: time of peak plasma concentration (converted); for half-life: read-out: terminal half-life (converted); for Concentration ENDX PROTAC 9: listed as ENDX PROTAC 9, 1 mg/kg
Method: ENDX PROTAC 7 and PROTAC 9 pharmacokinetics were characterized in female CD1 mice. Blood samples were collected from mice anesthetized under isoflurane via retro-orbital eye bleed into tubes containing EDTA and immediately chilled on ice. NaF was added to the EDTA collection tubes to help stabilize the drug in whole blood for the second IV and IP studies with ENDX PROTAC 9, and for the IV and oral studies with PROTAC 7. Plasma and red blood cells were separated immediately by centrifugation in a refrigerated centrifuge at 4°C. The plasma was transferred to a separate tube and immediately frozen at -20°C.
For IV dosing, ENDX PROTAC 9 was dissolved in 10% DMSO, 10% PEG 400, and 80% normal saline for a final concentration of 0.2 mg/mL ENDX PROTAC 9 for the 1 mg/kg IV doses. ENDX PROAC 7 was dissolved in 15% DMSO, 9.44% PEG400, and 55% normal saline for a final concentration of 0.19 mg/mL for the 1 mg/kg IV doses. Blood samples (3 mice per time-point) were collected 5 minutes, 15 minutes, 0.5 hour, 1 hour, 2 hours, 4 hours, 8 hours, and 24 hours after administration of the ENDX PROTAC. […] For oral dosing, ENDX PROTAC 9 (10 mg/kg) and ENDX PROTAC 7 (10 mg/kg) were suspended in 1 mM ascorbic acid:PEG400, 1:1 v/v for a final concentration of 1.0 mg/mL ENDX PROTAC. Blood samples (three mice per time-point) were collected 15 minutes, 0.5 hour, 1 hour, 2 hours, 4 hours, 6 hours, 8 hours, and 24 hours after administering the ENDX PROTAC. For I.P. dosing, ENDX PROTAC 9 (4 mg/kg) was prepared in 1 mM ascorbic acid:PEG400, 1:1 v/v for a final concentration of 0.4 mg/mL ENDX PROTAC 9. Blood samples (three mice per time-point) were collected 15 minutes, 0.5 hour, 1 hour, 2 hours, 4 hours, 6 hours, 8 hours, and 24 hours after administration. Plasma concentrations of ENDX PROTAC 7 and 9 were measured using UPLC-MS/MS.

[1] = mouse, plasma, iv, 1 mg/kg, I.V. 1 mg/kg, first study without NaF
[2] = mouse, plasma, iv, 1 mg/kg, I.V. 1 mg/kg, second study with NaF

stability in whole blood (inferred from IV studies with and without NaF): unstable in whole blood
Cmax (mouse, plasma, ip, 4 mg/kg, I.P. 4 mg/kg, read-out: peak plasma concentration): 135 ng/mL
bioavailability (mouse, plasma, ip, I.P. 4 mg/kg, read-out: bioavailability of the I.P. dose): 225%
Tmax (mouse, plasma, ip, I.P. 4 mg/kg): 30 min
clearance [1]: 730 mL/min/kg
half-life [1]: 60 min
Cmax (mouse, plasma, iv, 1 mg/kg, I.V. 1 mg/kg, samples collected without added NaF, read-out: peak plasma concentration): 47.2 ng/mL
clearance [2]: 478 mL/min/kg
half-life [2]: 39.6 min
Cmax (mouse, plasma, iv, 1 mg/kg, I.V. 1 mg/kg, second study, NaF added to EDTA tubes, read-out: peak plasma concentration): 70.9 ng/mL
concentration at 0.5 h (mouse, plasma, iv, 1 mg/kg, plasma, IV 1 mg/kg, EDTA without NaF, 30 minutes, individual mice, read-out: Concentration ENDX PROTAC 9): 1.81 ng/mL
concentration at 0.5 h (mouse, plasma, iv, 1 mg/kg, plasma, IV 1 mg/kg, all data (both IV studies), 30 minutes, read-out: Concentration ENDX PROTAC 9): 2.83 ng/mL
Tmax (mouse, plasma, iv, I.V. 1 mg/kg, samples collected without added NaF): 5 min
Cmax (mouse, plasma, po, 10 mg/kg, oral 10 mg/kg, read-out: average peak plasma concentration): 11.1 ng/mL
concentration at 0.5 h (mouse, plasma, po, 10 mg/kg, plasma, PO 10 mg/kg, 30 minutes, individual mice, read-out: Concentration ENDX PROTAC 9): 0.74 ng/mL
concentration at 8 h (mouse, plasma, po, 10 mg/kg, plasma, PO 10 mg/kg, 480 minutes, individual mice, read-out: Concentration ENDX PROTAC 9): 0.08 ng/mL
concentration at 0.25 h (mouse, plasma, po, 10 mg/kg, plasma, TABLE 7, titled PO pk (10 mg/kg), 15 minutes, individual mice, read-out: Concentration ENDX PROTAC 9): 108 ng/mL
concentration at 0.5 h (mouse, plasma, po, 10 mg/kg, plasma, TABLE 7, titled PO pk (10 mg/kg), 30 minutes, individual mice, read-out: Concentration ENDX PROTAC 9): 166 ng/mL
concentration at 1 h (mouse, plasma, po, 10 mg/kg, plasma, TABLE 7, titled PO pk (10 mg/kg), 60 minutes, individual mice, read-out: Concentration ENDX PROTAC 9): 131 ng/mL
bioavailability (mouse, plasma, oral 10 mg/kg vs IV 1 mg/kg, read-out: Oral bioavailability): 8.8%
Tmax (mouse, plasma, oral 10 mg/kg): 60 min
Concentration ENDX PROTAC 9 (plasma, IV 1 mg/kg, EDTA without NaF, 30 minutes, individual mice): 1.662 ng/mL
Concentration ENDX PROTAC 9 (plasma, IV 1 mg/kg, EDTA without NaF, 120 minutes, individual mice): 0.8988 ng/ml and 0.4446 ng/ml and BLD
Concentration ENDX PROTAC 9 (plasma, IV 1 mg/kg, EDTA without NaF, 240 minutes, individual mice): BLD and 0.0197 ng/ml and 0.3141 ng/ml
Concentration ENDX PROTAC 9 (plasma, IV 1 mg/kg, EDTA without NaF, 480 minutes, individual mice): 0 ng/ml and BLD (2×)
Compound: CCC(=C(c1ccc(O)cc1)c1ccc(OCCN(C)C(=O)COCCOCCNC(=O)Cc2ccc3c(c2)CN(C2CCC(=O)NC2=O)C3=O)cc1)c1ccccc1 (stereo not shown) [TC-Pr-009, 2-[2-(2-2-[2-(2,6-dioxopiperidin-3-yl)-1-oxo-2,3-dihydro-1H-isoindol-5-yl]acetamidoethoxy)ethoxy]-N-(2-4-[1-(4-hydroxyphenyl)-2-phenylbut-1-en-1-yl]phenoxyethyl)-N-methylacetamide]
Concentration ENDX PROTAC 9 (plasma, IV 1 mg/kg, EDTA without NaF, 5 minutes, individual mice): 49.449 ng/mL and 47.9659 ng/mL and 12.7855 ng/mL
Concentration ENDX PROTAC 9 (plasma, IV 1 mg/kg, EDTA without NaF, 15 minutes, individual mice): 44.1034 ng/mL and 9.4992 ng/mL and 7.241 ng/mL
Concentration ENDX PROTAC 9 (plasma, IV 1 mg/kg, EDTA without NaF, 60 minutes, individual mice): 0.5069 ng/mL and 0.2706 ng/mL and 0.0179 ng/mL
